Laboratory results taken from patent publication US6610744B2, “Methods of treatment with compounds having RARα receptor specific or selective activity” (Allergan, Inc., priority 1995, dated 2003).
Converted amounts (≈) assume the structure as drawn. Each block holds one molecule with its values, some of them ahead of it.

How the values were obtained:
[1] = tested on: RPMI 8226 cells (malignant myeloma); test: RPMI 8226 cell culture assay (3H-thymidine incorporation); type: cell-based, human; conditions: FIG. 1; for growth of RPMI 8226 malignant cells: 96 hours; for growth of RPMI 8226 cells at low concentration: low concentration range 10^−12 to approximately 10^−9
Procedure: (§1) All trans-retinoic acid (t-RA) (Sigma Chemicals Co., St. Louis, Mo.) was stored at −70° C. Prior to each experiment the compound was dissolved in 100% ethanol at 1 mM and diluted in culture medium immediately before use. All experiments were performed in subdued light. Controls were assayed using the same concentration of ethanol as present in the experimental plates and this concentration of diluent had no effect in either assay.
The cell lines, RPMI 8226, ME-180 and AML-193 were obtained from the American Type Culture Collection (ATCC, Rockville, Md.). RPMI 8226 is a human hematopoietic cell line obtained from the peripheral blood of a patient with multiple myeloma. The cells resemble the lymphoblastoid cells of other human lymphocyte cell lines and secrete […] light chains of immunoglobulin. RPMI-8226 cells are grown in RPMI medium (Gibco) supplemented with 10% fetal bovine serum, glutamine and antibiotics. The cells were maintained as suspension cultures grown at 37° C. in a humidified atmosphere of 5% CO2 in air. The cells were diluted to a concentration of 1×10^5/ml twice a week.
(§2) The method used for determination of the incorporation of radiolabeled thymidine was adapted from the procedure described by Shrivastav et al. RPMI-8226 cells were plated in a 96 well round bottom microtiter plate (Costar) at a density of 1,000 cells/well. To appropriate wells, retinoid test compounds were added at the final concentrations indicated for a final volume of 150 μl/well. The plates were incubated for 96 hours at 37° C. in a humidified atmosphere of 5% CO2 in air. Subsequently, 1 μCi of [5′-^3H]-thymidine (Amersham, U.K. 43 Ci/mmol specific activity) in 25 μl culture medium was added to each well and the cells were incubated for an additional 6 hours. The cultures were further processed as described below.
(§3) The cell lines were then processed as follows: the cellular DNA was precipitated with 10% trichloroacetic acid onto glass fiber filter mats using a SKATRON multi-well cell harvester (Skatron Instruments, Sterling Va.). Radioactivity incorporated into DNA, as a direct measurement of cell growth, was measured by liquid scintillation counting. The numbers represent the mean disintegrations per minute of incorporated thymidine from triplicate wells±SEM.

[2] = tested on: AML-193 cells (acute monocytic leukemia); test: AML 193 cell culture assay (3H-thymidine incorporation); type: cell-based, human; conditions: FIG. 3; low concentrations
Procedure: as §1
AML-193 was established from the blast cells classified as M5 Acute Monocyte Leukemia. The growth factor, […] (GM-CSF) was required to establish this cell line and growth factors are necessary for its continuous proliferation in chemically defined medium. AML-193 cells were grown and maintained in Iscove's modified Dulbecco's medium supplemented with 10% fetal bovine serum, glutamine and antibiotics with 5 μg/ml insulin (Sigma Chemical Co.) and 2 ng/ml rh GM-CSF (R and D Systems). The cells were diluted to a concentration of 3×10^5/ml twice a week.
as §2, with “AML-193” for “The method used for determination of the incorporation of radiolabeled thymidine was adapted from the procedure described by Shrivastav et al. RPMI-8226”, “U.K.,” for “U.K.”, “hours.” for “hours. The cultures were further processed as described below.”
as §3

[3] = tested on: limb bud mesenchymal cells; test: Chondrogenesis suppression bioassay (teratogenic potency); type: cell-based; conditions: read-out: IC50 (50% inhibition of chondrogenesis); mouse limb bud spot cultures, 96 hours after plating; greater IC50 signifies lesser teratogenecity
Procedure: High-density “spot” cultures of limb bud mesenchymal cells are used to compare the ability of various concentrations of test drugs to suppress chondrogenic differentiation as a bioassay. Forelimb buds of mouse embryos on day 12 of gestation (54±2 somites) are dissociated in a trypsin-EDTA solution, and the resultant single-cell suspension is plated as 20-μl spots (200,000 cells/spot) on plastic culture dishes. Retinoid concentrations ranging from 0.3 ng/ml to 3 μg/ml (1 nM−10 μM) are added to the culture medium (Eagle's MEM±10% fetal bovine serum, GIBCO) 24 hours after initial plating. Control cultures receive only the vehicle (ethanol, concentration≦1% by vol); Retinoic acid is used as a positive control in another set of cultures.
The cultures are terminated 96 hours after plating, at which time the medium is removed and the cells are fixed for 1 hour in 10% formalin containing 0.5% cetylpyridinium chloride. The cultures are rinsed in acetic acid and stained for 1 hour in 0.5% Alcian blue solution at pH 1.0, differentiated in 3% acetic acid, and then dehydrated in ethanol and scored for chondrogenesis under the microscope. An absence or reduction in the number of cartilage nodules in stained cultures as compared with control cultures is taken as a measure of suppression of chondrogenesis. The number of cartilage nodules stained in the whole spot, mean number of nodules, and standard deviations are calculated for four replicate cultures per treatment. […] The IC50 values are expressed in nanogram per mililiter (ng/ml) units. An IC50 value of greater concentration in this assay signifies lesser teratogenecity.

[4] = Weight loss in rats treated for 3 days; type: in vivo, rat; conditions: rats
Procedure: Weight loss or gain that experimental animals experience upon administration of retinoid compounds is another test of the drug's toxicity, with significant weight loss at relatively low doses indicating a significant toxic side effect of the retinoid. In one experiment, groups of 5 rats were treated with varying doses (administered in corn oil) of a test retinoid for 3 days. The rats were euthanized 24 hours after the last dose.

[5] = tested on: hairless mice [Crl:SKH1-hrBR]; test: Eight day topical skin irritation assay in hairless mice; conditions: for Abrasion Score / Body Weight % gain or (loss) / Composite Score / Flaking Score / Mortality (out of 4): 5 days
Procedure: More particularly, skin irritation was measured on a semi-quantitative scale by the daily subjective evaluation of skin flaking and abrasions. A single number, the topical irritation score, summarizes the skin irritation induced in an animal during the course of an experiment. The topical irritation score is calculated as follows. The topical irritation score is the algebraic sum of a composite flaking score and a composite abrasion score. The composite scores range from 0-9 and 0-8 for flaking and abrasions, respectively, and take into account the maximum severity, the time of onset, and the average severity of the flaking and abrasions observed.
The severity of flaking is scored on a 5-point scale and the severity of abrasions is scored on a 4-point scale, with higher scores reflecting greater severity. The maximum severity component of the composite scores would be the highest daily severity score assigned to a given animal during the course of observation.
For the time of onset component of the composite score, a score ranging from 0 to 4 is assigned as follows:
The average severity component of the composite score is the sum of the daily flaking or abrasion scores divided by the number of observation days.
To calculate the composite flaking and abrasion scores, the average severity and time of onset scores are summed and divided by 2. The result is added to the maximal severity score. The composite flaking and abrasion scores are then summed to give the overall topical irritation score. Each animal receives a topical irritation score, and the values are expressed as the mean±SD of the individual scores of a group of animals. Values are rounded to the nearest integer.
Thus, female hairless mice [Crl:SKH1-hrBR] […] Treatments are applied to the dorsal skin in a total volume of 4 ml/kg (−0.1 ml).

RXRβ = biological target: T1, RXRβ (Homo sapiens, UniProt P28702); test: Ligand binding assay, RXRβ
T1 construct: made in house; host or cells: Baculovirus expression (insect cell extract)
T1 sequence (P28702 1-533): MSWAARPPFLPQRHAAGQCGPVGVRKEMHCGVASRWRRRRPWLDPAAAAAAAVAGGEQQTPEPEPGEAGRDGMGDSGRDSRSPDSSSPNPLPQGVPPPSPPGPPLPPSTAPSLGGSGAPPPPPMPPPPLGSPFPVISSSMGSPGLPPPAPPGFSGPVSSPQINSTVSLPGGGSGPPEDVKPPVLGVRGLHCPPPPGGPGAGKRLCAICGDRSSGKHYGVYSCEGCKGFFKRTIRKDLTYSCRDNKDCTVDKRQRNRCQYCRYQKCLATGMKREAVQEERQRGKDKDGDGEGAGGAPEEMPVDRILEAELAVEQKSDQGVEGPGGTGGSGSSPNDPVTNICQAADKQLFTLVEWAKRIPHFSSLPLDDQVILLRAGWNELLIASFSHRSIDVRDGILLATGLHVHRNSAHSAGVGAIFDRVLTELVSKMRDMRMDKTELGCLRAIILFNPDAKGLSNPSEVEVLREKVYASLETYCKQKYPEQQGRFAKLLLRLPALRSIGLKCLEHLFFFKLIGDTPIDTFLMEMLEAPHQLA
Procedure: (§4) All binding assays were performed in a similar fashion. All six receptor types were derived from the expressed receptor type (RARα, β, Γ and RXRα, β, Γ) expressed in Baculovirus. Stock solutions of all compounds were prepared as 10 mM ethanol solutions and serial dilutions carried out into 1:1 DMSO; ethanol. Assay buffers consisted of the following for all six receptor assays: 8% glycerol, 120 mM KCl 8 mM Tris, 5 mM CHAPS 4 mM DTT and 0.24 mM PMSF, pH-7.4@ room temperature.
(§5) All receptor binding assays were performed in the same manner. The final assay volume was 250 μl and contained from 10-40 μg of extract protein depending on receptor being assayed along with 5 nM of [^3H] all-trans retinoic acid or 10 nM [^3H] 9-cis retinoic acid and varying concentrations of competing ligand at concentrations that ranged from 0-10^−5 M. The assays were formatted for a 96 well minitube system. Incubations were carried out at 4° C. until equilibrium was achieved. Non-specific binding was defined as that binding remaining in the presence of 1000 nM of the appropriate unlabeled retinoic acid isomer. At the end of the incubation period, 50 μl of 6.25% hydroxyapitite was added in the appropriate wash buffer. The wash buffer consisted of 100 mM KCl, 10 mM Tris and either 5 mM CHAPS (RXRα, β, Γ) or 0.5% Triton X-100 (RARα, β, Γ). The mixture was vortexed and incubated for 10 minutes at 4° C., centrifuged and the supernatant removed. The hydroxyapitite was washed three more times with the appropriate wash buffer. The receptor-ligand complex was adsorbed by the hydroxyapitite. The amount of receptor-ligand complex was determined by liquid scintillation counting of hydroxyapitite pellet.
(§6) After correcting for non-specific binding, IC50 values were determined. […] The IC50 value was determined graphically from a loglogit plot of the data. The […] were determined by application of the Cheng-Prussof equation to the IC50 values, the labeled ligand concentration and the Kd of the labeled ligand.
(§7) The results of ligand binding assay are expressed in Kd numbers. (See Cheng et al. Biochemical Pharmacology Vol. 22 pp 3099-3108, expressly incorporated herein by reference.)

RXRΓ = biological target: T2, RXRΓ (Homo sapiens, UniProt P48443); test: Ligand binding assay, RXRΓ
T2 construct: made in house; host or cells: Baculovirus expression (insect cell extract)
T2 sequence (P48443 1-463): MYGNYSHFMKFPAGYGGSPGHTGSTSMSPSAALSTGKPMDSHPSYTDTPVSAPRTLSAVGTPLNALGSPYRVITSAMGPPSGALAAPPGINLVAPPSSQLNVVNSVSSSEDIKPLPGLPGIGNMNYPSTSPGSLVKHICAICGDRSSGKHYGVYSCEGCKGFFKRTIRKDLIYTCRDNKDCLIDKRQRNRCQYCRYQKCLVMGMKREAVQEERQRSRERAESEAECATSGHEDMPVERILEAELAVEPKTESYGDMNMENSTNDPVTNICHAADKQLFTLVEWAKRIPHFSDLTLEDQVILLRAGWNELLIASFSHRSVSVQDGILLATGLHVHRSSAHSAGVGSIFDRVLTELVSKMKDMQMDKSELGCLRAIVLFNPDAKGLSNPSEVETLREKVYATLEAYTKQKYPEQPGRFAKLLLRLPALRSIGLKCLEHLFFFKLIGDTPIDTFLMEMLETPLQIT
Procedure: as §4, §5, §6, §7

Compound: CC1(C)CCC(C)(C)c2c(Br)cc(C(=O)Nc3ccc(C(=O)O)c(F)c3)cc21 [Compound 4, 2-Fluoro-4-[(4′-bromo-5′,6′,7′,8′-tetrahydro-5′,5′,8′,8′-tetramethylnaphthalen-2′-yl)carbamoyl]benzoic Acid]
growth of RPMI 8226 malignant cells [1]: inhibited the growth
growth of RPMI 8226 cells at low concentration [1]: do not stimulate but rather already in this low concentrations inhibit the growth
AML-193 cell proliferation at low concentrations [2]: reduce cell proliferation at low concentrations

Compound: CC1(C)CC(C)(C)c2cc(C(=O)Nc3ccc(C(=O)O)c(F)c3)cc(Br)c2O1 [Compound 10, 2-Fluoro-4-[(2′,2′,4′,4′-tetramethyl-8′-bromochroman-6′-yl)carbamoyl]benzoic Acid]
IC50 [3]: 250 ng/mL (≈ 555 nM)

Compound: CC1(C)CC(C)(C)c2cc(C(=O)Nc3ccc(C(=O)O)c(F)c3)cc(C(F)(F)F)c2O1 [Compound 12]
growth of RPMI 8226 malignant cells [1]: inhibited the growth
growth of RPMI 8226 cells at low concentration [1]: do not stimulate but rather already in this low concentrations inhibit the growth
AML-193 cell proliferation at low concentrations [2]: reduce cell proliferation at low concentrations

Compound: CC1(C)CC(C)(C)c2cc(C(=O)Nc3ccc(C(=O)O)c(F)c3)cc(I)c2O1 [Compound 18]
weight loss compared to control ([4]; daily doses up to 90 μmol/kg/day in corn oil for 3 days, FIG. 6, FIG. 7): virtually no weight loss even in the high dose of 90 μmol/kg/day
AML-193 cell proliferation at low concentrations [2]: reduce cell proliferation at low concentrations
IC50 [3]: 220 ng/mL (≈ 442 nM)
Abrasion Score ([5]; dose 100 nanomol/25 g topical): 1
Body Weight % gain or (loss) ([5]; dose 100 nanomol/25 g topical): 8 ± 7%
Composite Score ([5]; dose 100 nanomol/25 g topical): 1 ± 1
Flaking Score ([5]; dose 100 nanomol/25 g topical): 0
Mortality (out of 4) ([5]; dose 100 nanomol/25 g topical): 0 out of 4
Abrasion Score ([5]; dose 1000 nanomol/25 g topical): 1
Body Weight % gain or (loss) ([5]; dose 1000 nanomol/25 g topical): 4 ± 1%
Composite Score ([5]; dose 1000 nanomol/25 g topical): 2 ± 0
Flaking Score ([5]; dose 1000 nanomol/25 g topical): 1
Mortality (out of 4) ([5]; dose 1000 nanomol/25 g topical): 0 out of 4

Kd (RXRβ): > 1000 nM
Kd (RXRΓ): > 1000 nM
Compound: CC(C)(C)c1cc(C(=O)Nc2ccc(C(=O)O)cc2)cc(C(C)(C)C)n1 [Compound 44]

Kd (RXRβ): > 1000 nM
Kd (RXRΓ): > 1000 nM
Compound: CC(C)(C)c1cc(C(=O)Nc2ccc(C(=O)O)c(F)c2)c(O)c(C(C)(C)C)c1 [Compound 48]

Compound: C/C(=C\c1ccc(C(=O)O)cc1)c1ccc2c(c1)C(C)(C)CCC2(C)C [TTNPB]
weight loss in similar tests ([4]; similar tests): very significant weight loss
IC50 [3]: 0.01 ng/mL (≈ 0.0287 nM)
Abrasion Score ([5]; dose 0.9 nanomol/25 g topical): 3
Body Weight % gain or (loss) ([5]; dose 0.9 nanomol/25 g topical): 5 ± 2%
Composite Score ([5]; dose 0.9 nanomol/25 g topical): 8 ± 2
Flaking Score ([5]; dose 0.9 nanomol/25 g topical): 5
Mortality (out of 4) ([5]; dose 0.9 nanomol/25 g topical): 0 out of 4
Abrasion Score ([5]; dose 2.7 nanomol/25 g topical): 3
Body Weight % gain or (loss) ([5]; dose 2.7 nanomol/25 g topical): (4 ± 3) %
Composite Score ([5]; dose 2.7 nanomol/25 g topical): 9 ± 2
Flaking Score ([5]; dose 2.7 nanomol/25 g topical): 6
Mortality (out of 4) ([5]; dose 2.7 nanomol/25 g topical): 0 out of 4
Abrasion Score ([5]; dose 9 nanomol/25 g topical): 5
Body Weight % gain or (loss) ([5]; dose 9 nanomol/25 g topical): (11 ± 3) %
Composite Score ([5]; dose 9 nanomol/25 g topical): 11 ± 2
Flaking Score ([5]; dose 9 nanomol/25 g topical): 7
Mortality (out of 4) ([5]; dose 9 nanomol/25 g topical): 0 out of 4
skin irritation (summary in words) ([5]; topical, hairless mice, RARα selective compound up to 1000 nmol/25 g): much more serious skin irritation
